The test deals with T1, Human TRPC6 (Homo sapiens, UniProt Q9Y210).
T1 construct: expressed in transfected cells
T1 sequence (Q9Y210 1-931): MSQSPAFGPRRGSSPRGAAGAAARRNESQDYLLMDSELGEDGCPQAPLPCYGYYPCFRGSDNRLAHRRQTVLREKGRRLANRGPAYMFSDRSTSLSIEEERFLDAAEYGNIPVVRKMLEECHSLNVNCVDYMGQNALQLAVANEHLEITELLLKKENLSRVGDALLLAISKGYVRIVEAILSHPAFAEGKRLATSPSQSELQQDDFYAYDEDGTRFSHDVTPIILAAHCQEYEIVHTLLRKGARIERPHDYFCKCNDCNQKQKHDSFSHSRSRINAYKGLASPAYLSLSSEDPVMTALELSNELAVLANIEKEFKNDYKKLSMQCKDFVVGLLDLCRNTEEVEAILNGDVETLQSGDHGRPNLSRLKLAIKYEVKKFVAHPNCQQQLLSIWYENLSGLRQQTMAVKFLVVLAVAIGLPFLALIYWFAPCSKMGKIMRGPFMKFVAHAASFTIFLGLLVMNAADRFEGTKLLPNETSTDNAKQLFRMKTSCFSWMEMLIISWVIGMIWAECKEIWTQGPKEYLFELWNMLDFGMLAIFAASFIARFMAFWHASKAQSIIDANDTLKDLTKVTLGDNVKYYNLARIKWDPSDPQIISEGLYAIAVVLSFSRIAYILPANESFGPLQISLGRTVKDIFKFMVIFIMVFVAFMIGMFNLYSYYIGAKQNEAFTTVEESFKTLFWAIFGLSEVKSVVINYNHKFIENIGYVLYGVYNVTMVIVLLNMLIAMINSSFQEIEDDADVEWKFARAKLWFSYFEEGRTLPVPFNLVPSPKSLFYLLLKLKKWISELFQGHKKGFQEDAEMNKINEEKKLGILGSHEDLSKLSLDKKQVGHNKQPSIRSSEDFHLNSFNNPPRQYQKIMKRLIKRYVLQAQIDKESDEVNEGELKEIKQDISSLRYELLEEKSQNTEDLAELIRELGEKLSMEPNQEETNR
In words: Evaluation of TRPC6 channel inhibitory activity (1), FLIPR Calcium 5 Assay Kit, OAG stimulation (Compound Nos. 1-1293). The format is cell-based. The conditions noted are these: Human TRPC6 stably-expressing cells, OAG 30 μM, FLIPR Calcium 5 Assay Kit; read-out: Inhibitory activity (pIC50 class) (converted). The essentials:
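Stable human TRPC6 line; fluorescent Ca2+ dye loading, then 20 min compound exposure before 30 μM OAG trigger. Peak-minus-baseline signal converted to % inhibition against untreated and unstimulated wells; potency given as pIC50 band.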
With `CCN(C)c1cc(Oc2cc(C#N)ccc2-c2ncc(CCN)cn2)nc(C)n1` [compound 854, 4-[5-(2-aminoethyl)pyrimidin-2-yl]-3-[6-[ethyl(methyl)amino]-2-methylpyrimidin-4-yl]oxybenzonitrile], the IC50 was less than 10 nM.
Under `Cn1nc(-c2ccccn2)cc1Oc1cc(C#N)ccc1-c1ncc(CNC(C)(C)C)cn1` [compound 664, 4-[5-[(tert-butylamino)methyl]pyrimidin-2-yl]-3-(2-methyl-5-pyridin-2-ylpyrazol-3-yl)oxybenzonitrile] stands 10 to 1000 nM.
Take `N#Cc1ccc(-c2ncc(CCN)cn2)c([S+]([O-])c2cnnc(-c3ccccc3)c2)c1` (stereo not drawn) [compound 1275, 4-[5-(2-aminoethyl)pyrimidin-2-yl]-3-(6-phenylpyridazin-4-yl)sulfinylbenzonitrile]: the IC50 is more than 1000 nM.
Regarding `Cn1nc(-c2ncccc2F)cc1Oc1cc(C#N)ccc1-c1ncc(CN)cn1` [compound 649, 4-[5-(aminomethyl)pyrimidin-2-yl]-3-[5-(3-fluoropyridin-2-yl)-2-methylpyrazol-3-yl]oxybenzonitrile], the IC50 was 10 to 1000 nM.
With `Cn1nc(C2CC2)cc1Oc1cc(C#N)ccc1-c1ncc(CC(C)(C)N)cn1` [compound 477, 4-[5-(2-amino-2-methylpropyl)pyrimidin-2-yl]-3-(5-cyclopropyl-2-methylpyrazol-3-yl)oxybenzonitrile] the figure was less than 10 nM; with `Cn1nc(C2CC2)cc1Oc1cc(C#N)ccc1-c1cc(CN)ccn1` [compound 443, 4-[4-(aminomethyl)pyridin-2-yl]-3-(5-cyclopropyl-2-methylpyrazol-3-yl)oxybenzonitrile], 10 to 1000 nM; with `CC(C)c1nc(Oc2cc(C#N)ccc2-c2ncc(CCN)cn2)n(C)n1` [compound 813, 4-[5-(2-aminoethyl)pyrimidin-2-yl]-3-[(2-methyl-5-propan-2-yl-1,2,4-triazol-3-yl)oxy]benzonitrile], more than 1000 nM.
Under `N#Cc1ccc(-c2ncc(CN)cn2)c(Cn2ncc(-c3ccccc3)n2)c1` [compound 1170, 4-[5-(aminomethyl)pyrimidin-2-yl]-3-[(4-phenyltriazol-2-yl)methyl]benzonitrile] stands more than 1000 nM.
With `Cc1cc(Oc2cc(C#N)ccc2-c2ncc(C(C)N)cn2)cc(N2CCOCC2)n1` (stereo not drawn) [compound 701] the figure was less than 10 nM.
Turning to `CCCc1nccn1Cc1cc(C#N)ccc1-c1ccc(CCN)cc1` [compound 1121, 4-[4-(2-aminoethyl)phenyl]-3-[(2-propylimidazol-1-yl)methyl]benzonitrile], the IC50 is more than 1000 nM.
Take `Cn1nc(C2CCCC2)cc1Oc1cc(C#N)ccc1-c1ncc(CCN)cn1` [compound 393, 4-[5-(2-aminoethyl)pyrimidin-2-yl]-3-(5-cyclopentyl-2-methylpyrazol-3-yl)oxybenzonitrile]: the IC50 is less than 10 nM.
Under `Cn1nc(C2CC2)cc1Oc1cc(C#N)ccc1-c1cccn2c(CCN)nnc12` [compound 570, 4-[3-(2-aminoethyl)-[1,2,4]triazolo[4,3-a]pyridin-8-yl]-3-(5-cyclopropyl-2-methylpyrazol-3-yl)oxybenzonitrile] stands 10 to 1000 nM; under `Cc1nc(Oc2cc(C#N)ccc2-c2ccc(C(CN)c3ccccc3)cc2)cc(N2CCOCC2)n1` (stereo not drawn) [Compound 59, 4-[4-(2-Amino-1-phenylethyl)phenyl]-3-(2-methyl-6-morpholin-4-ylpyrimidin-4-yl)oxybenzonitrile], 10 to 1000 nM.
With `Cc1cc(Oc2cc(C#N)ccc2-c2cnc(CCN)cn2)cc(N2CCOCC2)n1` [compound 388, 4-[5-(2-aminoethyl)pyrazin-2-yl]-3-(2-methyl-6-morpholin-4-ylpyridin-4-yl)oxybenzonitrile], the IC50 is less than 10 nM.
With `CCN(CC)c1cc(Oc2cc(C#N)ccc2-c2ccc(CCN)cc2)nc(C)n1` [Compound 15, 4-[4-(2-aminoethyl)phenyl]-3-[6-(diethylamino)-2-methylpyrimidin-4-yl]oxybenzonitrile], the IC50 was 10 to 1000 nM.
Under `CN(C)c1nc(-c2ccc(C#N)cc2Oc2cc(-c3ccccn3)nn2C)nc2c1CNCC2` [compound 762, 4-[4-(dimethylamino)-5,6,7,8-tetrahydropyrido[4,3-d]pyrimidin-2-yl]-3-(2-methyl-5-pyridin-2-ylpyrazol-3-yl)oxybenzonitrile] stands more than 1000 nM; under `Cc1nc(Oc2cc(C#N)ccc2-c2ccc(CC3(N)COC3)cn2)cc(N2CCCC2)n1` [compound 616, 4-[5-[(3-aminooxetan-3-yl)methyl]pyridin-2-yl]-3-(2-methyl-6-pyrrolidin-1-ylpyrimidin-4-yl)oxybenzonitrile], 10 to 1000 nM.
Under `CCOC(=O)c1cc(Oc2cc(C#N)ccc2-c2ccc(CCN)cn2)n(C)n1` [compound 309, ethyl 5-[2-[5-(2-aminoethyl)pyridin-2-yl]-5-cyanophenoxy]-1-methylpyrazole-3-carboxylate] stands 10 to 1000 nM.
Regarding `Cc1cccc(-c2cc(Oc3cc(C#N)ccc3-c3ncc(CN)cn3)n(C)n2)n1` [compound 650, 4-[5-(aminomethyl)pyrimidin-2-yl]-3-[2-methyl-5-(6-methylpyridin-2-yl)pyrazol-3-yl]oxybenzonitrile], the IC50 is 10 to 1000 nM.
For `Cc1nc(Oc2cc(C#N)ccc2-c2ncc(CN)cn2)cc(N2CCO[C@@H](C)C2)n1` [compound 708, 4-[5-(aminomethyl)pyrimidin-2-yl]-3-[2-methyl-6-[(2S)-2-methylmorpholin-4-yl]pyrimidin-4-yl]oxybenzonitrile], the IC50 was less than 10 nM.
Under `Cc1nc(Oc2cc(C#N)ccc2-n2cc([C@@H](O)CN)cn2)cc(N2CCCC(C)(C)C2)n1` [Compound 235, 4-[4-[(1R)-2-amino-1 hydroxyethyl]pyrazol-1-yl]-3-[6-(3,3-dimethylpiperidin-1-yl)-2-methylpyrimidin-4-yl]oxybenzonitrile] stands 10 to 1000 nM; under `N#Cc1ccc(-c2ccc(CCN)cn2)c(Sc2cnnc(N3CCOCC3)c2)c1` [compound 1242, 4-[5-(2-aminoethyl)pyridin-2-yl]-3-(6-morpholin-4-ylpyridazin-4-yl)sulfanylbenzonitrile], 10 to 1000 nM; under `Cc1nc(Oc2cc(C#N)ccc2-c2ncc([C@@H](F)CN)cn2)cc(N2CCOCC2)n1` [compound 878, 4-[5-[(1R)-2-amino-1-fluoroethyl]pyrimidin-2-yl]-3-(2-methyl-6-morpholin-4-ylpyrimidin-4-yl)oxybenzonitrile], less than 10 nM.
Consider `N#Cc1ccc(-c2ccc(CCN)cc2)c(Oc2cc(-c3ccccc3)no2)c1` [compound 306, 4-[4-(2-aminoethyl)phenyl]-3-[(3-phenyl-1,2-oxazol-5-yl)oxy]benzonitrile], for which the IC50 was less than 10 nM.
Under `Cc1c(CN2CCN[C@@H](C)C2)cc(-c2ccc(C#N)cc2Oc2cc(C3CC3)nn2C)c2nccn12` [compound 497, 3-(5-cyclopropyl-2-methylpyrazol-3-yl)oxy-4-[5-methyl-6-[[(3S)-3-methylpiperazin-1-yl]methyl]imidazo[1,2-a]pyridin-8-yl]benzonitrile] stands more than 1000 nM; under `Cn1nc(C(F)(F)C(F)(F)F)cc1Oc1cc(C#N)ccc1-c1ncc(CCN)cn1` [compound 376, 4-[5-(2-aminoethyl)pyrimidin-2-yl]-3-[2-methyl-5-(1,1,2,2,2-pentafluoroethyl)pyrazol-3-yl]oxybenzonitrile], less than 10 nM.
With `Cn1nc(C(C)(C)C)cc1Oc1cc(C#N)ccc1-c1ncc(CCN)cn1` [compound 367, 4-[5-(2-aminoethyl)pyrimidin-2-yl]-3-(5-tert-butyl-2-methylpyrazol-3-yl)oxybenzonitrile] the figure was less than 10 nM; with `Cn1nc(N)cc1Oc1cc(C#N)ccc1-c1ccc([C@H](O)CN)cn1` [compound 576, 4-[5-[(1S)-2-amino-1-hydroxyethyl]pyridin-2-yl]-3-(5-amino-2-methylpyrazol-3-yl)oxybenzonitrile], more than 1000 nM.
With `Cc1cc(Oc2cc(C#N)ccc2-c2ccc(CN3CCOCC3)cn2)cc(N2CCOCC2)n1` [compound 425, 3-(2-methyl-6-morpholin-4-ylpyridin-4-yl)oxy-4-[5-(morpholin-4-ylmethyl)pyridin-2-yl]benzonitrile] the figure was more than 1000 nM; with `Cn1nc(-c2nccs2)cc1Oc1cc(C#N)ccc1-c1ncc(CN)cn1` [compound 592, 4-[5-(aminomethyl)pyrimidin-2-yl]-3-[2-methyl-5-(1,3-thiazol-2-yl)pyrazol-3-yl]oxybenzonitrile], less than 10 nM.

(Values after US20230167073A1 (Teijin Pharma Limited, priority 2020, published 2023).)
